Experimental data published in US8710003B2, “Treatment of diabetes with milk protein hydrolysate” (Nestec S.A., priority 1999, dated 2014).

System: NCI-H716 cells
Experiment: Release of active GLP-1 by NCI-H716 cells
Type: cell-based, human
Conditions: alpha-lactose dose equivalent to that contained in the wheys, 2 h incubation, active GLP-1 only
Method: Cells were grown in suspension at 37° C., 5% CO2. The culture medium consisted of RPMI 1640 supplemented with 10% FBS, 2 mM L-glutamine, 100 IU/ml penicillin and 100 μg/ml streptomycin. […] Cells were, therefore, seeded in dishes coated with […] ® (Becton Dickinson, Bedford, Mass., USA) two days before experiments.
Two days before experiments, 1×10^6 cells were seeded in 12 well culture plates coated with […] ®. On the day of the experiment, the supernatant was replaced by Krebs-Ringer Bicarbonate Buffer (KRB) containing 0.2% wt/vol BSA with or without CGMP. Cells were incubated for 2 h at 37° C. Supernatants were collected with the addition of 50 μg/ml PMSF and frozen at −80° C. for subsequent analysis by radioimmunoassay (RIA) of GLP-1. Cells were scraped with a rubber policeman and homogenization buffer [1 N HCl containing 5% (v/v) HCOOH, 1% (v/v) trifluoroacetic acid (TFA), and 1% (v/v) NaCl] and sonicated for 15 s. […] The intraassay coefficient of variance was 2.28%.
Here, a kit was used that only measures the active form of GLP-1, i.e., GLP-1 (7-37) or GLP-1 (7-36 amide), but not the degraded form, GLP-1 (9-36 amide), as was included in the data for FIGS. 1-3.

OC[C@H]1O[C@@H](O[C@H]2[C@H](O)[C@@H](O)[C@@H](O)O[C@@H]2CO)[C@H](O)[C@@H](O)[C@H]1O [alpha-lactose]
GLP-1 secretion compared to the control: 144±32%
